Measurements reported in patent publication US7687453B2, “Method for administering insulin to the buccal region” (Generex Pharmaceuticals Incorporated, priority 1998, dated 2010).

Experiments:
[1] = system: blood glucose; assay: Blood glucose after insulin injection vs oral insulin drops, fasted healthy non-diabetic volunteers (Example 1); type: in vivo, human; set-up: unit not given here; details: 10 units sub-cutaneous injection, avg of 5 fasted healthy volunteers
Method: In one set of tests, five healthy non-diabetic human volunteers were tested with insulin, by injection. In another set of tests the volunteers were tested with insulin, taken orally. The volunteers fasted from midnight prior to the test, with no food being taken during the 4 hour study.
On the first day, the volunteers received 10 units of insulin by injection (regular fast acting insulin, available from Eli Lilly). On the second day, the volunteers received 100 units (1 mL volume per drop, approximately 20 drops) of the above-prepared oral insulin (10 times the injection dose). In both tests, blood glucose levels were monitored every 15 minutes by Bayer's Glucometer Elite.

[2] = system: blood glucose; assay: Blood glucose, oral mixed micellar insulin (bacitracin, evening primrose oil) vs injection, fasted volunteers (Example 14); type: in vivo, human; details: injection 10 units, avg of six fasted volunteers
Method: Six human volunteers were studied. The volunteers fasted from midnight prior to the test, with no food being taken during the 4 hour study. On the first day, the volunteers received 10 units insulin by injection (regular fast acting insulin, available from Eli Lilly). On the second day, the volunteers received 20 units of the above-prepared oral insulin (twice the injection dose). In both tests, blood glucose levels were monitored at intervals by Bayer's Glucometer Elite.

Substance: regular fast acting insulin: regular fast acting insulin, available from Eli Lilly, given by injection (10 units)
- Blood glucose level ([1]; 0 min): 5.8
- Blood glucose level ([1]; 15 min): 5.8
- Blood glucose level ([1]; 30 min): 5.4
- Blood glucose level ([1]; 60 min): 5.0
- Blood glucose level ([1]; 75 min): 4.6
- Blood glucose level ([1]; 90 min): 4.3
- Blood glucose level ([1]; 120 min): 3.8
- Blood glucose level ([1]; 150 min): 3.6
- Blood glucose level ([1]; 180 min): 3.4
- Blood glucose level ([1]; 210 min): 4.2
- Blood glucose level ([1]; 240 min): 4.5
- Blood glucose levels ([2]; 0 min): 7.9 mmol/L
- Blood glucose levels ([2]; 15 min): 7.9 mmol/L
- Blood glucose levels ([2]; 30 min): 8.2 mmol/L
- Blood glucose levels ([2]; 45 min): 8.3 mmol/L
- Blood glucose levels ([2]; 60 min): 7.6 mmol/L
- Blood glucose levels ([2]; 90 min): 6.2 mmol/L
- Blood glucose levels ([2]; 120 min): 5.2 mmol/L
- Blood glucose levels ([2]; 150 min): 4.6 mmol/L
- Blood glucose levels ([2]; 180 min): 3.9 mmol/L
- Blood glucose levels ([2]; 210 min): 4.4 mmol/L
- Blood glucose levels ([2]; 240 min): 5.2 mmol/L
